Assay results published in PMC11345830, “Exploration of Hydrazide-Based HDAC8 PROTACs for the Treatment of Hematological Malignancies and Solid Tumors” (Journal of Medicinal Chemistry, 2024).

Legend:
acetyl-SMC3 (Ac-SMC3) = assay: Ac-SMC3 level in Jurkat cells, Western blot; format: cell-based; conditions: 6 h
HCT116 cells = assay: Apoptosis assay (Annexin V-FITC/PI flow cytometry), HCT116; format: cell-based; set-up: Q1 (flow cytometry quadrant) / Q2 (flow cytometry quadrant) / Q3 (flow cytometry quadrant) / Q4 (flow cytometry quadrant): unit not given here; conditions: 48 h
Description: The cell apoptosis assay was performed using eBioscience Annexin V-FITC/PI Apoptosis Detection Kit (Thermo Fisher Scientific, Carlsbad, CA, USA). Jurkat cells (5 × 10^5) and HCT116 cells (3 × 10^5) were treated with different concentrations of test compounds for 24 or 48 h. Cells were harvested after incubation, washed twice in cold PBS, centrifuged, and resuspended in 1X annexin-binding buffer. According to the manufacturer’s instructions, cells were incubated with Annexin V and Propidium iodide (PI) sequentially. All samples were analyzed by NovoCyte Quanteon Flow Cytometer (Agilent Technologies, CA, USA).

Compound: CCCCCCNNC(=O)c1ccc(CNC(=O)CN2CCC(c3ccc(NC4CCC(=O)NC4=O)cc3)CC2)cc1 (stereo not drawn) [Z16, 2-(4-(4-((2,6-Dioxopiperidin-3-yl)amino)phenyl)piperidin-1-yl)-N-(4-(2-hexylhydrazine-1-carbonyl)benzyl)acetamide]
- concentration at which increased acetylation of SMC3 started (acetyl-SMC3 (Ac-SMC3)): around 10 nM
- concentration leading to obvious increased Ac-SMC3 (acetyl-SMC3 (Ac-SMC3)): 0.01 µM
- Q1 (flow cytometry quadrant) (HCT116 cells; 1.1 μM): 4.38
- Q2 (flow cytometry quadrant) (HCT116 cells; 1.1 μM): 5.93
- Q3 (flow cytometry quadrant) (HCT116 cells; 1.1 μM): 10.3
- Q4 (flow cytometry quadrant) (HCT116 cells; 1.1 μM): 79.4
- Q1 (flow cytometry quadrant) (HCT116 cells; 3.3 μM): 2.37
- Q2 (flow cytometry quadrant) (HCT116 cells; 3.3 μM): 32.3
- Q3 (flow cytometry quadrant) (HCT116 cells; 3.3 μM): 44.6
- Q4 (flow cytometry quadrant) (HCT116 cells; 3.3 μM): 20.7
- apoptosis induced (HCT116 cells; 3.3 μM): over 70%
- Q1 (flow cytometry quadrant) (HCT116 cells; 10 μM): 2.80
- Q2 (flow cytometry quadrant) (HCT116 cells; 10 μM): 57.3
- Q3 (flow cytometry quadrant) (HCT116 cells; 10 μM): 24.9
- Q4 (flow cytometry quadrant) (HCT116 cells; 10 μM): 15.1
